Experimental data reported in paper PMC3568510 (Biochemistry, 2013).

Biological target: CC3396
Format: biochemical, Caulobacter vibrioides (Caulobacter crescentus)

| SMILES | Ki [nM] |
| --- | --- |
| Nc1nc2c(ncn2[C@@H]2O[C@@H]3CO[P@@](O)(=S)O[C@H]4[C@@H](O)[C@H](n5cnc6c(=O)[nH]c(N)nc65)O[C@@H]4CO[P@](O)(=S)O[C@H]3[C@H]2O)c(=O)[nH]1 [c-(RPSP)-di-Gps] | ~820 |
| Nc1nc2c(ncn2[C@@H]2O[C@@H]3CO[P@@](O)(=S)O[C@H]4[C@@H](O)[C@H](n5cnc6c(=O)[nH]c(N)nc65)O[C@@H]4CO[P@@](O)(=S)O[C@H]3[C@H]2O)c(=O)[nH]1 [c-(RPRP)-di-Gps] | ~480 |
